Values of other authors as cited in article PMC7163368 (British Journal of Clinical Pharmacology, 2020).

Details: cited from earlier work

Structure (SMILES)	Oral bioavailability [%]	other results
N#C[C@@H]1C[C@@H]2C[C@@H]2N1C(=O)[C@@H](N)C12CC3CC(CC(O)(C3)C1)C2 [saxagliptin]	67	
N#C[C@@H]1CCCN1C(=O)CNC12CC3CC(CC(O)(C3)C1)C2 [vildagliptin]	85	
N[C@@H](CC(=O)N1CCn2c(nnc2C(F)(F)F)C1)Cc1cc(F)c(F)cc1F [sitagliptin]		Plasma levels higher in female subjects (female vs male subjects): approximately 25%
CC#CCn1c(N2CCC[C@@H](N)C2)nc2c1c(=O)n(Cc1nc(C)c3ccccc3n1)c(=O)n2C [linagliptin]		Terminal half‐life (currently available oral gliptines): 105 h
